{"source": "ChEMBL document CHEMBL5465560", "about": "“Selectivity Literature for EUbOPEN Chemogenomic Library” (2024)", "key": {"[1]": {"target": "T1, Dual serine/threonine and tyrosine protein kinase (Homo sapiens) (UniProt Q6XUX3)", "T1 sequence (whole entry)": "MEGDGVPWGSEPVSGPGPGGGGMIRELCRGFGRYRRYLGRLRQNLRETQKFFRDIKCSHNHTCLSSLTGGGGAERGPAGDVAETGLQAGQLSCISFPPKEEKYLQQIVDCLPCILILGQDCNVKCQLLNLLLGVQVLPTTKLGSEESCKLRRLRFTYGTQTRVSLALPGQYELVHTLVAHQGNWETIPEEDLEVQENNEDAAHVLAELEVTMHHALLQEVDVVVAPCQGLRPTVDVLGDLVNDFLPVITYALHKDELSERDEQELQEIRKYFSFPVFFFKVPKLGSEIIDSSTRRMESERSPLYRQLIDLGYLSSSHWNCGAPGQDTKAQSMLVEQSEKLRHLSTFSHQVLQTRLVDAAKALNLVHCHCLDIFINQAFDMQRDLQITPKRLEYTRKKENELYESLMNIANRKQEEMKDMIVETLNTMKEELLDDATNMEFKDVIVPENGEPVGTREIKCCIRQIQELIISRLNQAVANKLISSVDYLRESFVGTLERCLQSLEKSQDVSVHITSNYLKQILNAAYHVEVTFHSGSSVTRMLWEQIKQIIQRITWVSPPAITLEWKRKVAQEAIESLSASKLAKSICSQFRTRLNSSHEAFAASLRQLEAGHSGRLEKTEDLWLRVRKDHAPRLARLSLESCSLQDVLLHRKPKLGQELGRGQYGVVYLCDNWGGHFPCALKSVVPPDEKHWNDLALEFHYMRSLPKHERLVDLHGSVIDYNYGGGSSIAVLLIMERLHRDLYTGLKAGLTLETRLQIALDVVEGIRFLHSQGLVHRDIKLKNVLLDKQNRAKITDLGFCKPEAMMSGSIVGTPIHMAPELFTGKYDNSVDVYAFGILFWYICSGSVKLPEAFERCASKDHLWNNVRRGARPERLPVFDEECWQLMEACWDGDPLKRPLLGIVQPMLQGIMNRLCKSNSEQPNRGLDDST", "test": "Selectivity interaction (KinomeScan (DiscoverX)) EUB0000092b DSTYK", "details": "at 10 µM"}, "[2]": {"target": "T2, Mitogen-activated protein kinase kinase kinase 7 (Homo sapiens) (UniProt O43318)", "T2 sequence (whole entry)": "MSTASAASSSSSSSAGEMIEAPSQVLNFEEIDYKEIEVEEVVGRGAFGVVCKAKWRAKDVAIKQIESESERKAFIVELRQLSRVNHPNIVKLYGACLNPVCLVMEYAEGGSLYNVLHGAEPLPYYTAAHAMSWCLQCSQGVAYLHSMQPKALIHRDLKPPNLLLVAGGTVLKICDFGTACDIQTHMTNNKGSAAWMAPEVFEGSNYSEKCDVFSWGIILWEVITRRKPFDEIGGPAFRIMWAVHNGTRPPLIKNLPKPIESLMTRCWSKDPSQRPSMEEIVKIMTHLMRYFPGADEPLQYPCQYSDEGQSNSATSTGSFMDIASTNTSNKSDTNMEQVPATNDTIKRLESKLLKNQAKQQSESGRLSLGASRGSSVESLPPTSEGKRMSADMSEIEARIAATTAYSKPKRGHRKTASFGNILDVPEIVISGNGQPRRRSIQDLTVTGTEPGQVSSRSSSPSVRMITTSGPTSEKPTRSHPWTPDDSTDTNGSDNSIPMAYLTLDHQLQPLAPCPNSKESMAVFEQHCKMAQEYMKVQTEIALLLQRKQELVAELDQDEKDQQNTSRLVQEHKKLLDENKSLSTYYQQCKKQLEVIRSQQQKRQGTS", "test": "Selectivity interaction (Kinase panel (KiNativ target engagement assay in Jurkat cells)) EUB0001635a MAP3K7", "type": "cell-based", "details": "Selectivity number of off-targets 0.0, Selectivity number of targets 233.0, Source Knowledge https://www.sciencedirect.com/science/article/pii/S2451945619300674?via%3Dihub, at 1 µM"}, "[3]": {"target": "T3, cAMP-dependent protein kinase catalytic subunit PRKX (Homo sapiens) (UniProt P51817)", "T3 sequence (whole entry)": "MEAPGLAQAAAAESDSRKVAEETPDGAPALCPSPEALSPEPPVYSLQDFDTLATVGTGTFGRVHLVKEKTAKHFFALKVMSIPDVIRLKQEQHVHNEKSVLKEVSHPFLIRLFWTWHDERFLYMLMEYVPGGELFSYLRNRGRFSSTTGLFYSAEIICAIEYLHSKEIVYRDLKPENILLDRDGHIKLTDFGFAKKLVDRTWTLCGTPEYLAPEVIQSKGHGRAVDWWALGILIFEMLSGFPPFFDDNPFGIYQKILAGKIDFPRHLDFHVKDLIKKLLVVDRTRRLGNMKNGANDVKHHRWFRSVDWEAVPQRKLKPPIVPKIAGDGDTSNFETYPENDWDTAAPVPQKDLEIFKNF", "details": "at 10 µM"}, "[4]": {"target": "T4, Serine/threonine-protein kinase D3 (Homo sapiens) (UniProt O94806)", "T4 sequence (whole entry)": "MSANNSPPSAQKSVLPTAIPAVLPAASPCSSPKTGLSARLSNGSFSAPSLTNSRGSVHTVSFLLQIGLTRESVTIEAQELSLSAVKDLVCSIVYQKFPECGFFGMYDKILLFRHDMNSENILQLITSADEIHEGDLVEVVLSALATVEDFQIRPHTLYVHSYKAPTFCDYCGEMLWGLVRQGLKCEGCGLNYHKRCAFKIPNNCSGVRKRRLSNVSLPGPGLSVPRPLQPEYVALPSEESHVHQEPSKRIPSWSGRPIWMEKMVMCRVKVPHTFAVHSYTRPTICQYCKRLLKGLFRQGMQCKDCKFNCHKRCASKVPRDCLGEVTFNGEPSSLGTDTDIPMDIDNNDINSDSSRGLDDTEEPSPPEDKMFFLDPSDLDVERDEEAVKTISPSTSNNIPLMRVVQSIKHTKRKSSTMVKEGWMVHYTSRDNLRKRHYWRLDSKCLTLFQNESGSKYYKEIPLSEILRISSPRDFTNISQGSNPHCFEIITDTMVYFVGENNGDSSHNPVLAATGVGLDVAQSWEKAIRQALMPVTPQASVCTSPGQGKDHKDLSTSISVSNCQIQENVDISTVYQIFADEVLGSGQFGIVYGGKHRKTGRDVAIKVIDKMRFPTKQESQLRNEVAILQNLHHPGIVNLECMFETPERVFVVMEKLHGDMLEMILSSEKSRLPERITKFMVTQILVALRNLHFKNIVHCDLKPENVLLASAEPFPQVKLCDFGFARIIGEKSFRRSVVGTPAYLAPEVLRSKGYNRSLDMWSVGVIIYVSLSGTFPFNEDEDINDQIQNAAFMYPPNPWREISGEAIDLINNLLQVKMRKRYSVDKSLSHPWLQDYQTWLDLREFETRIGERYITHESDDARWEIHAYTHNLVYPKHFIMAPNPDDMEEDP", "details": "at 10 µM"}, "[5]": {"target": "T4, Serine/threonine-protein kinase D3 (Homo sapiens)", "test": "Selectivity interaction (Ambit KINOMEscan and KiNATiv profiling in Jurkat cells) EUB0000090b PRKD3", "type": "cell-based", "details": "at 1 µM"}}, "data": [{"smiles": "CCC(=O)N1CCN(c2ccc(-n3c(=O)ccc4cnc5ccc(-c6cnc7ccccc7c6)cc5c43)cc2C(F)(F)F)CC1", "values": [{"measurement": "% of control", "setting": "[1]", "value": 28, "unit": "%"}]}, {"smiles": "C=CC(=O)Nc1ccc(C(=O)Nc2[nH]nc3c2CN(C(=O)N[C@H](CN(C)C)c2ccccc2)C3(C)C)cc1", "values": [{"measurement": "% of engagement", "setting": "[2]", "value": -4.8, "unit": "%"}]}, {"smiles": "Cc1cc([C@@H](C)Nc2ccccc2C(=O)O)c2nc(N3CCOCC3)cc(=O)n2c1", "note": "[AZD-6482]", "values": [{"measurement": "% of control", "setting": "[3]", "value": 91, "unit": "%"}, {"measurement": "% of control", "setting": "[4]", "value": 100, "unit": "%"}]}, {"smiles": "CN(C)C/C=C/C(=O)Nc1ccc(C(=O)N2CCCC(Nc3ncc(Cl)c(-c4c[nH]c5ccccc45)n3)C2)cc1", "note": "(stereo not given)", "values": [{"measurement": "% of control", "setting": "[5]", "value": 33, "unit": "%"}]}]}
